According to publication PMC9145754, “Novel Soloxolone Amides as Potent Anti-Glioblastoma Candidates: Design, Synthesis, In Silico Analysis and Biological Activities In Vitro and In Vivo” (Pharmaceuticals, 2022):

What was measured:
U87 cells [1] = test: Cytotoxicity of 12 with N-acetyl-L-cysteine (MTT); assay type: cell-based; settings: U87, 12 at 4 µM with NAC, 24 h
Experimental: To check the ability of 12 to influence ROS production, U87 cells treated with 12 (4 µM) for 24 h were stained with dichlorodihydrofluorescein diacetate (DCFDA) and analyzed by flow cytometry. […] Since ROS play an important role in the regulation of cell death, we further examined whether ROS production mediated the cytotoxicity of 12 with respect to glioblastoma cells.
In order to understand whether ROS play a crucial role in compound 12-induced cell death, U87 cells were plated in quadruplicate in 96-well plates at a density of 1 × 10^4 cells/well and incubated in the presence of 12 at 4 µM and N-Acetyl-L-cysteine (NAC) at […] for 24 h under standard conditions. Then, cell viability was measured using an MTT test.

U87 glioblastoma = test: Subcutaneous U87 glioblastoma xenograft model; assay type: in vivo, Balb/C nude mice
Experimental: Given the high antitumor potential of 12 with respect to glioblastoma cells observed in vitro, we further questioned whether the investigated triterpenoid suppresses the growth of glioblastoma in a murine model. To understand this, 12 was intraperitoneally injected as a solution in 10% Tween-80 at a dosage of 20 mg/kg into nude mice bearing subcutaneously implanted human U87 glioblastomas (the experimental setup is presented in Figure 8A). […] Analysis of tumor weights also confirmed the high antitumor activity of 12, which decreased this parameter by 2.1- and 3.4-fold compared to the untreated and vehicle-treated groups, respectively (Figure 8D).
A xenograft model of tumor progression was induced by subcutaneous (s.c.) injection of U87 glioblastoma cells (2 × 10^7 cells/mL) suspended in 0.1 mL of saline buffer with 0.05 mL of Matrigel® Matrix (Corning, NY, USA) into the left flank of Balb/C nude mice. On day 5 after tumor transplantation, the mice were divided into three groups (n = 6 per group): (1) mice without treatment (control); (2) mice that received intraperitoneal (i.p.) injections of 10% Tween-80 (vehicle); and (3) mice that received i.p. injections of 12 in 10% Tween-80 at a dose of 20 mg/kg. The treatment was carried out thrice per week. The total number of injections was seven. During the experiment, the tumor volumes were determined three times a week using caliper measurements and were calculated as V= (D × d^2)/2, where D is the longest diameter of the tumor node and d is the shortest diameter of the tumor node perpendicular to D. The mice were sacrificed on day 21 after tumor transplantation and the tumors and brains were collected for subsequent histological and pharmacological analysis.
For the histological study, the tumor specimens were fixed in 10% neutral-buffered formalin (BioVitrum, St. Petersburg, Russia), dehydrated in ascending ethanols and xylols and embedded in HISTOMIX paraffin (BioVitrum, St. Petersburg, Russia). The paraffin sections (5 μm) were sliced on a Microm HM 355S microtome (Thermo Fisher Scientific, Waltham, MA, USA) and stained with hematoxylin and eosin. Extracellular matrix deposition was determined using Masson’s trichrome staining.
For the immunohistochemical study, the tumor sections (3–4 μm) were deparaffinized and rehydrated. Antigen retrieval was carried out after exposure in a microwave oven at 700 W. The samples were incubated with anti-Ki-67 (ab16667, Abcam, Boston, MA, USA), anti-α-SMA (ab5694, Abcam, USA) or anti-CD31 (ab182981, Abcam, USA) primary antibodies according to the manufacturer’s protocol. Then, the sections were incubated with secondary horseradish peroxidase (HPR)-conjugated antibodies, exposed to the 3,3′-diaminobenzidine (DAB) substrate (Rabbit Specific HRP/DAB (ABC) Detection IHC Kit, ab 64261, Abcam, USA) and stained with Mayer’s hematoxylin.
Morphometric analysis of tumor sections included evaluation of the numerical density (Nv) of mitoses and Ki-67-positive cells in a square unit of tumor tissue—3.2 × 10^6 μm^2 in this case. At least ten random fields from the tumor specimens of six mice in each group (60 testing fields in total) were studied.

U87 cells [2] = test: Colony formation assay, U87; assay type: cell-based, human; settings: for decrease of surface area covered by cell colonies compared to the control: 14 days
glioblastoma cells = test: Cell survival at non-toxic concentrations; assay type: cell-based; settings: 12 at 25–500 nM (non-toxic concentrations)
Experimental: To evaluate the antitumor potential of 12 more comprehensively, its effects at non-toxic concentrations (25–500 nM; cell survival of ≥90%) on a range of metastatic-related processes in glioblastoma cells were studied. Firstly, we investigated the inhibitory activity of 12 on the clonogenic capacity of tumor cells in vitro, which reflects their ability to form colonies from single cells which characterizes the stemness of tumor cells and plays a crucial role in metastasis.

U87 cells [3] = test: Autophagy, MDC staining, U87; assay type: cell-based, human; settings: 24 h
Experimental: Given that pentacyclic triterpenoids can induce tumor cell death not only by the apoptotic pathway but also by triggering autophagy, we next studied whether 12 stimulated autophagy in glioblastoma cells. For this, U87 and U118 cells were incubated with tryptamide 12 at toxic concentrations (2 or 4 µM) for 24 h followed by cell staining with monodansylcadaverine (MDC), a fluorescent dye specifically labeling autophagosomes. […] Considering that autophagy can be associated not only with cell death but also with cytoprotection, its role in the cytotoxicity of 12 in glioblastoma cells was further studied.
To evaluate the ability of 12 to induce autophagy, U87 and U118 cells were seeded at 2.8 × 10^5 cells/well in 6-well plates and incubated under standard conditions overnight followed by their treatment with 12 in amounts of 2 and 4 μM for 24 h. Then, the cells were collected and washed with PBS as described above and resuspended in 500 µL of PBS containing monodancylcadaverine (MDC) at 50 μM. After incubation for 15 min under standard conditions, the cells were washed with PBS and analyzed by flow cytometry. For each sample, 10,000 events were acquired.

[4] = 20 mg/kg i.p., seven injections
[5] = 20 mg/kg i.p., seven injections, day 21

With `CC1(C)C(=O)C(C#N)=C[C@]2(C)C3=CC(=O)[C@@H]4[C@@H]5C[C@@](C)(C(=O)NCCc6c[nH]c7ccccc67)CC[C@]5(C)CC[C@@]4(C)[C@]3(C)CC[C@@H]12` [compound 12] the “effect of NAC on cytotoxic effect of 12” value (U87 cells [1]) was “complete abrogation of the cytotoxic effect”, the “decrease in tumor weight compared to the untreated group” value (U87 glioblastoma; [4]) was 2.1 fold and the “decrease in tumor weight compared to the vehicle-treated group” value (U87 glioblastoma; [4]) was 3.4 fold. The “decrease in tumor volume compared to the control” value (U87 glioblastoma; [5]) was 3 fold, the “decrease in tumor volume compared to the vehicle-treated group” value (U87 glioblastoma; [5]) was 4.4 fold and the “decrease in numerical density of Ki-67-positive cells compared to the untreated control group” value (U87 glioblastoma; 20 mg/kg i.p., tumor tissue) was 3.5 fold. For the same molecule, the “decrease in numerical density of Ki-67-positive cells compared with vehicle-treated animals” value (U87 glioblastoma; 20 mg/kg i.p., tumor tissue) was 2.4 fold, the “decrease in numerical density of mitotic cells (Nv) compared to the untreated control group” value (U87 glioblastoma; 20 mg/kg i.p., tumor tissue) was 3.4 fold and the “decrease in numerical density of mitotic cells (Nv) compared with vehicle-treated animals” value (U87 glioblastoma; 20 mg/kg i.p., tumor tissue) was 4 fold. For the same molecule, the “collagen fiber content in tumor tissue” value (U87 glioblastoma; Masson's trichrome, versus untreated and vehicle-treated mice) was “decreased the collagen fiber content”, the “expression of CD31 and α-SMA in tumor tissue” value (U87 glioblastoma; immunohistochemistry, versus control and vehicle-treated mice) was “increased the expression of both CD31 and α-SMA” and the “decrease of surface area covered by cell colonies compared to the control” value (U87 cells [2]; U87, 12 at 200 nM) was 2.1 fold. The “decrease of surface area covered by cell colonies compared to the control” value (U87 cells [2]; U87, 12 at 500 nM) was 2.4 fold, the “inhibitory effect on clonogenic growth” value (U87 cells [2]; U87, 12 at 50 and 100 nM) was “statistically insignificant” and the cell survival (glioblastoma cells) was ≥ 90%. The “MDC-positive cells, U87” value (U87 cells [3]; 12 at 2 µM) was 19.57% and the “MDC-positive cells, U87” value (U87 cells [3]; 12 at 4 µM) was 31.95%.
